In ChEMBL document CHEMBL1201862, “PubChem BioAssay data set” (2004):
Calls of active or inactive are those of the source.

Tests used:
Estrogen receptor = target: T1, Estrogen receptor (Homo sapiens, UniProt P03372);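 further: potency for inhibiting coactivator peptide recruitment to the receptor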
T1 sequence (P03372 whole entry): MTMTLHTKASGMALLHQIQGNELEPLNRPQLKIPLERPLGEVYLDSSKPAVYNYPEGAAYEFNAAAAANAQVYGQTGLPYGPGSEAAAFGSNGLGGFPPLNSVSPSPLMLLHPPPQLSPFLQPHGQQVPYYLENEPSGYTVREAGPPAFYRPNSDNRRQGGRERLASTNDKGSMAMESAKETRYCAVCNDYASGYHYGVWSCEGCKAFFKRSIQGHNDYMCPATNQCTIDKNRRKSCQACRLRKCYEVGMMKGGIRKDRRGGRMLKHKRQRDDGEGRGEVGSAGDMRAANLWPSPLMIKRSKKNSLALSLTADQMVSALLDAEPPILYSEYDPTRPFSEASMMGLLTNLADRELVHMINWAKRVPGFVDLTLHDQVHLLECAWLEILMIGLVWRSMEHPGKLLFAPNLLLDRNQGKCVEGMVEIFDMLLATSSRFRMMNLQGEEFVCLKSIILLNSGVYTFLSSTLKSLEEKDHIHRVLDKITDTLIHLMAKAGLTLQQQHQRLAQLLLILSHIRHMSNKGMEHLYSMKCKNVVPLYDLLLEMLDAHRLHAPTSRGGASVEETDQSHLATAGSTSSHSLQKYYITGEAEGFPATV

[1] = target: T2, Calpain-2 catalytic subunit (Sus scrofa, UniProt P43367); test: m-calpain protease blockers, concentration series – biochemical, fluorogenic peptide substrate, dose response (AID 1420); format: functional
T2 sequence (P43367 whole entry): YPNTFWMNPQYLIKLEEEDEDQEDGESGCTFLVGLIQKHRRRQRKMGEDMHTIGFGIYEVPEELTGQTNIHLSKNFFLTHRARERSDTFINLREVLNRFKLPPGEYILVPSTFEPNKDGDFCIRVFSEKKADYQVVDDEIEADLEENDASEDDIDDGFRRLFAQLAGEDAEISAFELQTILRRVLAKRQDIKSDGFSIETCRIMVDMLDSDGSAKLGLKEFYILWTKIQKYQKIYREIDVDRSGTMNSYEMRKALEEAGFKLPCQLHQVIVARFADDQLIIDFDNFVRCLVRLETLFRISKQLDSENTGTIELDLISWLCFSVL

[2] = target: T3, Corticotropin-releasing factor receptor 2/Corticotropin-releasing factor-binding protein (Homo sapiens, UniProt P24387+Q13324); test: Dose Response confirmation of uHTS hits for small molecule antagonists of the CRF-binding protein and CRF-R2 receptor complex.; format: functional; conditions: read-out: IC50_Mean
T3 sequence (Q13324 whole entry): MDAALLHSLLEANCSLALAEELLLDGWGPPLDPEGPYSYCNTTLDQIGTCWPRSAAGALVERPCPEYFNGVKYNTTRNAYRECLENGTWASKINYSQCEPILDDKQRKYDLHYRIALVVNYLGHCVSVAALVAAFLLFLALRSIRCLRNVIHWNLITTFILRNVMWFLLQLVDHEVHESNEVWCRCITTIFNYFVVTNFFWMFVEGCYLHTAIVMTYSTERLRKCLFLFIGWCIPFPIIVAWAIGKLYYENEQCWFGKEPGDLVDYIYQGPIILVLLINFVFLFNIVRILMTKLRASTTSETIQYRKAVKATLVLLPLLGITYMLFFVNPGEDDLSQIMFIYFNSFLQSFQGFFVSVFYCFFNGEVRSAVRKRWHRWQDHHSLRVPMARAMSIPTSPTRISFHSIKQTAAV
T3 sequence (P24387 whole entry): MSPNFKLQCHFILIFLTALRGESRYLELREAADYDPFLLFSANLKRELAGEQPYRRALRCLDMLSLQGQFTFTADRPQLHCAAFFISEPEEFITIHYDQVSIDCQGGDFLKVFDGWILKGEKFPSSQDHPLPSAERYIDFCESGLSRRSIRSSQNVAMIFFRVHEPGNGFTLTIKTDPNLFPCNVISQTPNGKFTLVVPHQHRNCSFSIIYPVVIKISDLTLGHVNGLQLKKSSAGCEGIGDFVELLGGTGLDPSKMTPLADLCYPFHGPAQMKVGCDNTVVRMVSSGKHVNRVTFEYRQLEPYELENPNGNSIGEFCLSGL

[3] = target: T3, Corticotropin-releasing factor receptor 2/Corticotropin-releasing factor-binding protein; test: activators of CRF receptor 2 with binding protein – uHTS hits, confirmation (AID 602473); format: functional; conditions: read-out: EC50_Mean
[4] = blockers of CRF-binding protein–CRF-R2 complex – cell-based, uHTS hits, 384-well, dose response (AID 651639); format: functional, Homo sapiens; conditions: read-out: IC50_Mean
[5] = target: Disintegrin and metalloproteinase domain-containing protein 17 (Homo sapiens, UniProt P78536); test: exosite inhibitors of ADAM17, dose response, biochemical (AID 743260)
[6] = inhibition of ADAM10 peptide cleavage – biochemical, FRET peptide substrate, recombinant human ADAM10, selectivity assay for ADAM17 exosite inhibitor project, dose response (AID 743259);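 further: ADAM10 enzyme cleaving a FRET peptide substrate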
Cytochrome P450 3A4 = Cytochrome P450 3A4 (Homo sapiens, UniProt P08684); conditions: Potency;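 further: confirmatory qHTS run detecting inhibitors and substrates of CYP3A4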
[7] = activation of miR-122 Renilla sensor silencing – cell-based, Huh7 psiCHECK-miR122, Renilla luciferase, cherry-picked, dose response (AID 651956); format: functional;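 further: huh7 hepatoma cells stably carrying a psiCHECK-2 miR-122 sensor plasmid; renilla luciferase signal reporting endogenous miR-122 activity after 48 h compound exposure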
[8] = general mammalian cell viability loss – inhibitor set, cherry-pick, set 2, cytotoxicity control for miR-122 modulator project, dose response (AID 720697); format: functional, cell-based
[9] = general mammalian cell viability loss – activator set, cherry-pick, cytotoxicity control for miR-122 modulator project, dose response (AID 720690); format: functional, cell-based;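 further: HEK293T human cells scored for general mammalian cytotoxicity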
[10] = RKO cell viability reduction, dose response, CellTiter-Glo luminescence (AID 1117322); format: functional
[11] = cytotoxicity toward HCT116 cells – cell-based, CellTiter-Glo luminescence, IC50, dose response (AID 1117332); format: functional; conditions: HCT-116
[12] = SNU-C1 cell viability reduction, dose response, CellTiter-Glo luminescence (AID 1117323); format: functional, cell-based
[13] = cytotoxicity toward Colo320 cells – cell-based, CellTiter-Glo luminescence, IC50, dose response (AID 1117334); format: functional; conditions: COLO 320
[14] = Reduced DLD-1 viability, concentration-response, CellTiter-Glo luminescence (AID 1117352); format: functional
[15] = HCT116 cell viability decrease, GSK3B pretreatment – CellTiter-Glo, IC50, dose response (AID 1117339); format: functional; conditions: HCT-116
Paired box protein Pax-8 = Paired box protein Pax-8 (Homo sapiens, UniProt Q06710); test: PAX8 transcriptional activity inhibition in RMG-I – RMG-I cells, luciferase, cherry-pick, dose response (AID 687027); format: functional, cell-based;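 further: luciferase reporter driven by Pax8 target thyroperoxidase promoter measured by SteadyGlo luminescence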
[16] = toxicity toward immortalized ovarian surface epithelium – cell-based, plate reader, dry powder samples, cytotoxicity control for PAX8 inhibitor project, dose response (AID 743045); format: functional
[17] = OVCAR-3 cell viability loss – plate reader, dry powder samples, PAX8 inhibitor project, dose response (AID 743044); format: functional, cell-based
[18] = OVCAR8 cell viability loss – plate reader, dry powder samples, PAX8 project, dose response (AID 743197); format: functional, cell-based; conditions: OVCAR-8
[19] = tested on: Streptococcus sp. 'group A'; test: Streptococcus pyogenes SK(-)GAS viability under kanamycin – luminescence, BacTiterGlo, confirmation, counter-screen for streptokinase expression inhibitor project, dose response (AID 1900); format: functional, organism-based
cells [20] = format: functional, cell-based
[21] = Trypanosoma cruzi growth suppression in host cells – NIH3T3 host cells, beta-gal luminescence, confirmation (AID 2044); format: functional, cell-based;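 further: intracellular parasites grown in NIH/3T3 mouse fibroblasts as host cells; luminescent beta-galactosidase reporter signal from transgenic T. cruzi replicating inside host cells; inhibitors lower the luminescence signal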
cells [22] = format: functional, cell-based; remark: listed apart in the source
[23] = NIH3T3 cell viability loss – ATP luminescence, mouse fibroblasts, counter-screen, dose response (AID 2010); format: functional, cell-based;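 further: cells exposed to compound for about 90 hours before reading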
Streptococcus = test: GAS UMAA2166 growth inhibition – luminescence, BacTiterGlo, counter-screen for streptokinase expression inhibitor project, dose response (AID 1915); format: functional, organism-based;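 further: potency for reduction of bacterial viability or growth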
[24] = THP-1 cell cytotoxicity, dose response, cytotoxicity control for non-replicating M. tuberculosis project (AID 489025); format: functional
[25] = Vero E6 cell cytotoxicity, dose response, cytotoxicity control for non-replicating M. tuberculosis project, secondary assay (AID 492998); format: functional, VeroE6; conditions: Vero C1008
cells [26] = format: functional
INS1 = test: INS-1E survival protection against cytokine death – cell-based, luminescence, retest, dose response (AID 449756); format: functional; conditions: Rattus norvegicus;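 further: cell death triggered by IL-1 beta plus TNF-alpha plus IFN-gamma mixture; protective hits raise ATP signal compared with cytokine alone wells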

Sequence of Disintegrin and metalloproteinase domain-containing protein 17 (P78536 whole entry, the tested form may be a part): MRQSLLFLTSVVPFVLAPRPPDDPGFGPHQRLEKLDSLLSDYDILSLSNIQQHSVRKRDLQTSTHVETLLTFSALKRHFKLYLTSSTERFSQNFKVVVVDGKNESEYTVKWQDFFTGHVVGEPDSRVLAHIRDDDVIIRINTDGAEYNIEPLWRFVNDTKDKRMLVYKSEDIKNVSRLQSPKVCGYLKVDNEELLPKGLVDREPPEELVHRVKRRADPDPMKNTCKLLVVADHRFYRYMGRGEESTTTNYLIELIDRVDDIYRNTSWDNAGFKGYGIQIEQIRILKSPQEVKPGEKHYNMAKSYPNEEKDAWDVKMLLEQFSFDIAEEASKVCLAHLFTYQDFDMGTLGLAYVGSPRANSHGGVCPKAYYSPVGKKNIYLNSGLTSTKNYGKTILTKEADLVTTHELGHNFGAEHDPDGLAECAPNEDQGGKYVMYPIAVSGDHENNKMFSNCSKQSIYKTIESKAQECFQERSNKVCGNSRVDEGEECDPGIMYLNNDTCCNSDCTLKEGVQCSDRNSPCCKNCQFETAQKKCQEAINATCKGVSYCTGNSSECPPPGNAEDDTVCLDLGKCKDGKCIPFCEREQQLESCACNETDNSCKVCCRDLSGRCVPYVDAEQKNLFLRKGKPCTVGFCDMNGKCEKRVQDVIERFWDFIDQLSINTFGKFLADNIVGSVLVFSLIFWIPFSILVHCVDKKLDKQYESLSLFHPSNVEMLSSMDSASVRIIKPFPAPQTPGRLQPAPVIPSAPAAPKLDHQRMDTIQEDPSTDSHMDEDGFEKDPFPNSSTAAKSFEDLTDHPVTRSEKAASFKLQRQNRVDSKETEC
Sequence of Cytochrome P450 3A4 (P08684 whole entry): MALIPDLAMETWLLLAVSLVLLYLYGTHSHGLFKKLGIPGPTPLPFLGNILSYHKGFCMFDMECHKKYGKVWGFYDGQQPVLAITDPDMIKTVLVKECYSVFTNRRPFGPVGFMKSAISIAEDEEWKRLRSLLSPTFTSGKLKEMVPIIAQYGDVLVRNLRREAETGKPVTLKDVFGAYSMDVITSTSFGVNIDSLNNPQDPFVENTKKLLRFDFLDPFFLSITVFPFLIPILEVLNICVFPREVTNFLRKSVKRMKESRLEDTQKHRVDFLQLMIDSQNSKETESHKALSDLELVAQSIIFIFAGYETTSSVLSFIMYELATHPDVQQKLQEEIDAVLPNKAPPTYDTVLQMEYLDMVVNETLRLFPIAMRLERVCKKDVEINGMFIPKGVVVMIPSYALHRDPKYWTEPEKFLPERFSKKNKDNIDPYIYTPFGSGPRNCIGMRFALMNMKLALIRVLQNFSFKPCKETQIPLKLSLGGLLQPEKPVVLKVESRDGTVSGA
Sequence of Paired box protein Pax-8 (Q06710 whole entry): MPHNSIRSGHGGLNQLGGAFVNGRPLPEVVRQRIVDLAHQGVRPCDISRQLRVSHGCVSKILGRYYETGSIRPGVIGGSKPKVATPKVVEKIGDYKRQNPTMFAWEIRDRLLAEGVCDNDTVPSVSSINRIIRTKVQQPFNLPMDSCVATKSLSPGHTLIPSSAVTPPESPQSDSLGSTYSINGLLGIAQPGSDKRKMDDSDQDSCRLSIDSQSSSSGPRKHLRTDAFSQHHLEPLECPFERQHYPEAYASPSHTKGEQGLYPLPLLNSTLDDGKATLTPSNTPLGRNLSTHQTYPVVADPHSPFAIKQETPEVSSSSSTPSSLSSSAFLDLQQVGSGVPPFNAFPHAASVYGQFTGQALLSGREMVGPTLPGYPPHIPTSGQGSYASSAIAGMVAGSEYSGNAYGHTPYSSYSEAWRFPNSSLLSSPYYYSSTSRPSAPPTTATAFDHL

For `Cc1csc2nc(CCNS(=O)(=O)c3ccc4c(c3)OCCO4)cn12`, the IC50 (Estrogen receptor) was 17.1 µM (active).
For `COc1cccc(CNc2ccc([N+](=O)[O-])cc2C)c1`, the IC50 [1] was 41 µM (not active), the IC50 [2] was 9.05 µM (active) and the EC50 [3] was > 53 µM (inactive). For the same compound, the IC50 [4] was 20 µM (active), the IC50 [5] was > 69.5 µM (inactive) and the IC50 [6] was 27.4 µM (inactive).
For `COC(=O)C/C=C/C(C)C(OCc1cccc(-c2ccccc2)c1)C1CCCCC1` (configuration not stated), the AC50 (Cytochrome P450 3A4) was 3.98 µM (inconclusive).
In the case of `C=C(Cl)CSC(=S)N(CC)CC` [SULFALLATE], the AC50 (Cytochrome P450 3A4) is reported as 10 µM (inconclusive).
With `Cc1ccc(C(C(=O)NC2CCCCC2)N(Cc2ccccc2)C(=O)Cc2c[nH]c3ccccc23)o1` (configuration not stated) the IC50 [5] was > 69.5 µM (inactive) and the IC50 [6] was 10.3 µM (inactive).
In the case of `NC(=O)c1c(NC(=O)c2cccs2)sc2c1CCCCCC2`, the IC50 (Estrogen receptor) is reported as 25.9 µM (active).
In the case of `CN1C(=O)c2cc(NC(=O)c3ccc(C(F)(F)F)cc3)ccc2OC[C@@H]2O[C@@H](CC(=O)NC3Cc4ccccc4C3)CC[C@@H]21`, the AC50 [7] is reported as 4.71 µM (active), the AC50 [8] is reported as < 0.195 µM (active) and the AC50 [9] is reported as 49.1 µM (active).
In the case of `O=C(OCc1ccccc1)c1cccnc1` [BENZYL NICOTINATE], the IC50 [10] is reported as > 20 µM (inactive), the IC50 [11] is reported as > 20 µM (inactive) and the IC50 [12] is reported as > 20 µM (inactive). For the same compound, the IC50 [13] was > 20 µM (inactive), the IC50 [14] was > 20 µM (inactive) and the IC50 [15] was > 20 µM (inactive).
For `O=S(=O)(c1ccccc1F)N1CC[C@H]2[C@H](CO)Nc3ccc(C4=CCCCC4)cc3[C@H]21`, the AC50 (Paired box protein Pax-8) was 6.12 µM (active), the AC50 [16] was 32.9 µM (active) and the AC50 [17] was 18.4 µM (active). The AC50 [18] was 26.7 µM (active).
In the case of `Oc1ccccc1/C=N/Nc1nc2ccccc2o1`, the EC50 [19] is reported as 1.9 µM (active), the EC50 (cells [20]) is reported as > 350 µM (not active) and the EC50 [21] is reported as 2.92 µM (active). For the same compound, the EC50 (cells [22]) was 4.02 µM (active), the EC50 [23] was > 60 µM (not active) and the EC50 (Streptococcus) was 4.17 µM (active). The CC50 [24] was 1.68 µM (active), the CC50 [25] was 2.59 µM (active) and the IC50 (cells [26]) was 33.3 µM (active). The AC50 (INS1) was 1.59 µM (active), the AC50 [8] was 2.53 µM (active) and the AC50 [9] was 5.79 µM (active).
